Source: paper PMC9458111, “New 1,2,3-Triazole-Coumarin-Glycoside Hybrids and Their 1,2,4-Triazolyl Thioglycoside Analogs Targeting Mitochondria Apoptotic Pathway: Synthesis, Anticancer Activity and Docking Simulation” (Molecules, 2022)

Legend:
[1] = tested on: human osteosarcoma (HOS cell lines); assay: MTT cytotoxicity assay, HOS; assay type: cell-based; settings: 48 h
Method: (§1) The synthesized compounds were studied for their cytotoxic activity against several human cancer cell lines, namely human osteosarcoma (HOS cell lines), human breast adenocarcinoma (MDA-MB-231 cell lines), human breast cancer (MCF-7 cell lines), human colorectal adenocarcinoma (Caco-2 cell lines) and human colon cell line (HCT-116 cell lines) using MTT assay at 100 µM, and the results were outlined as shown in Table 1.
(§2) Human osteosarcoma (HOS cell line), human breast adenocarcinoma (MDA-MB-231cell lines), human breast cancer (MCF-7 cell lines), human colorectal adenocarcinoma (Caco2 cell lines), human colon cell line (HCT-116 cell lines), normal human cell lines (BJ-1), and “a telomerase immortalized normal foreskin fibroblast cell line” were obtained from Karolinska Center, Department of Oncology and Pathology, Karolinska Institute and Hospital, Stockholm, Sweden.
(§3) Following culturing for 10 days, the cells were seeded at concentration of 10 × 10^3 cells per well in case of MCF-7 & MDA, 20 × 10^3 cells/well in a fresh complete growth medium in case of HCT-116, Caco2, & HOS and 40 × 10^3 cells/well in case of BJ-1 at 37 °C for 24 h in a water jacketed carbon dioxide incubator. After 48 h’ incubation, the medium was aspirated, and then 40 μl MTT salt (2.5 mg/mL) were added for a further 4 h; 200 μl 10% sodium dodecyl sulphate (SDS) in deionized water were added to each well and incubated overnight at 37 °C. The absorbance was measured at 595 nm with reference 690 nm. Doxorubicin was used as positive control, and 0.5% DMSO was used as negative control. IC50 values were calculated, using a probit analysis, and by utilizing the SPSS computer program (SPSS for Windows, statistical analysis software package/version 9/1989 SPSS Inc., Chicago, IL, USA).

[2] = tested on: human breast adenocarcinoma (MDA-MB-231 cell lines); assay: MTT cytotoxicity assay, MDA-MB-231; assay type: cell-based; settings: MDA-MB-231, 48 h
Method: as §1, §2, §3

[3] = tested on: human breast cancer (MCF-7 cell lines); assay: MTT cytotoxicity assay, MCF-7; assay type: cell-based; settings: for cytotoxicity at 100 µM: MCF7, 48 h; for IC50: MCF7, MTT, 0.78–100 µM, ± SD
Method: as §1, §2, §3

[4] = tested on: human colorectal adenocarcinoma (Caco-2 cell lines); assay: MTT cytotoxicity assay, Caco-2; assay type: cell-based; settings: Caco-2, 48 h
Method: as §1, §2, §3

[5] = tested on: human colon cell line (HCT-116 cell lines); assay: MTT cytotoxicity assay, HCT-116; assay type: cell-based; settings: for cytotoxicity at 100 µM: HCT-116, 48 h
Method: as §1, §2, §3

EGFR = EGFR (Homo sapiens, UniProt P00533); assay: EGFR kinase inhibitory assay (Kinase-Glo Max luminescence); assay type: biochemical; settings: for IC50: mean of three values, read-out: IC50 (Mean ± SEM), EGFR
VEGFR-2 = VEGFR-2 (Homo sapiens, UniProt P35968); assay: VEGFR-2 inhibitory assay (ELISA); assay type: biochemical; settings: for IC50: mean of three values, read-out: IC50 (Mean ± SEM), VEGFR-2
Method: The cells were harvested, and the homogenates were prepared in saline using a tight pestle homogenizer until complete cell disruption. The kit uses a double-antibody sandwich enzyme-linked immunosorbent assay (ELISA) to determine the level of human VEGFR-2 in samples. A monoclonal antibody for VEGFR-2 was pre-coated onto 96-well plates. The test samples are added to the wells, and a biotinylated detection polyclonal antibody from goat specific for VEGFR-2 was added subsequently followed by washing with PBS buffer. Avidin-Biotin-Peroxidase complex was added, and the unbound conjugates were washed away with PBS buffer. HRP substrate TMB was used to visualize HRP enzymatic reaction. TMB was catalyzed by HRP to produce a blue color product that changed into yellow after adding acidic stop solution. The density of yellow color is proportional to the human VEGFR-2 amount of the sample captured in the plate. The chroma of color and the concentration of the human VEGFR-2 of the samples were positively correlated, and the optical density was determined at 450 nm. The level of human VEGFR-2 in samples was calculated (pg/ml) as duplicate determinations from the standard curve. Percent inhibition was calculated in comparison to control untreated cells.

CDK-2/cyclin A2 = CDK-2/cyclin A2 (Homo sapiens, UniProt P24941); assay: CDK-2/cyclin A2 inhibitory assay (ELISA); assay type: biochemical; settings: for IC50: mean of three values, read-out: IC50 (Mean ± SEM), CDK-2/Cyclin A2
Method: Assay of CDK-2/cyclin A2 was achieved through ELISA using an affinity tag labeled capture antibody. […] After the incubation period, the unrestrained substance has been discarded, and the wells have been washed. The added TMB (3,3′,5,5′-tetramethylbenzidine) substrate was prompted by Horseradish peroxidase (HRP), and blue coloration appeared. This reaction was stopped through the addition of stop solution to complete changing in colour from blue to yellow. The created signals were equivalent to the quantity of bound analyte, and the Robonik P2000 ELISA reader was used to record the intensity at a certain wavelength (450 nm).

[6] = tested on: normal human skin cell lines BJ-1; assay: Safety on normal human skin cells BJ-1 (MTT); assay type: cell-based; settings: 100 µM
Method: To determine the selectivity and safety, all tested compounds were subjected to an assay for their safety upon normal human skin cell lines BJ-1 at a concentration of 100 µM.
as §2, §3

Chain of VEGFR-2 (P35968 20-1356): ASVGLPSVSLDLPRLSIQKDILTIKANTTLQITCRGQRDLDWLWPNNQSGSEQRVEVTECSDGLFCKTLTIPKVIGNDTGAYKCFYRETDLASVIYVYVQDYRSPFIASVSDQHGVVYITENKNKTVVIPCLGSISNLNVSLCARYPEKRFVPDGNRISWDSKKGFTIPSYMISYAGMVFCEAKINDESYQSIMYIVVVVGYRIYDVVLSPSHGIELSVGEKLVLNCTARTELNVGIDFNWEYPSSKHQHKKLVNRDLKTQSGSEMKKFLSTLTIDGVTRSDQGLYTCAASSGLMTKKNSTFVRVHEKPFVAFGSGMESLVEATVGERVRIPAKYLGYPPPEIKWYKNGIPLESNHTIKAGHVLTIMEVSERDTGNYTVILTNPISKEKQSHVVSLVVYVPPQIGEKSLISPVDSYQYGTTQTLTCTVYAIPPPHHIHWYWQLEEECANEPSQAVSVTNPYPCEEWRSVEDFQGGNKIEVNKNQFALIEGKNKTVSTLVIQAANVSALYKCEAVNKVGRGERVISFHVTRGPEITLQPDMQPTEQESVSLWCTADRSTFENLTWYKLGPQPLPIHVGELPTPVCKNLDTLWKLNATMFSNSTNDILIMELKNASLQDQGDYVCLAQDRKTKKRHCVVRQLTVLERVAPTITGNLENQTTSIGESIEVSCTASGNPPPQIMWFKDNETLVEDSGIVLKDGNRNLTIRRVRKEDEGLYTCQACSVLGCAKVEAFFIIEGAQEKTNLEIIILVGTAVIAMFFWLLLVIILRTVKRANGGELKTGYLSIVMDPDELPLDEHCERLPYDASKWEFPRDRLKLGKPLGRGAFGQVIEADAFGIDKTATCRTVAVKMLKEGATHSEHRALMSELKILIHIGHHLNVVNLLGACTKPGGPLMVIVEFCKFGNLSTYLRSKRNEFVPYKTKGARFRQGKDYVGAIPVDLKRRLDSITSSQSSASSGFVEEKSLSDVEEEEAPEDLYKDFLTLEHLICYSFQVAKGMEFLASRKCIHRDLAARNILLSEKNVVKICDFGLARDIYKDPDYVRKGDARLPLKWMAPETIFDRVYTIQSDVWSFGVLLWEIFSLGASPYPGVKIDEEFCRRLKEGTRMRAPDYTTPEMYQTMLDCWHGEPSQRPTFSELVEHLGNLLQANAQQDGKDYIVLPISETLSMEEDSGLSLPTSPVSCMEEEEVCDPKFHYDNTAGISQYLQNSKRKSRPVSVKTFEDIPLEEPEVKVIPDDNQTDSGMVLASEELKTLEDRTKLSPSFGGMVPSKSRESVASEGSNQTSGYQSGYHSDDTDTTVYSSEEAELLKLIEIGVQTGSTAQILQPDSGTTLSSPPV
Chain of EGFR (P00533 25-1210): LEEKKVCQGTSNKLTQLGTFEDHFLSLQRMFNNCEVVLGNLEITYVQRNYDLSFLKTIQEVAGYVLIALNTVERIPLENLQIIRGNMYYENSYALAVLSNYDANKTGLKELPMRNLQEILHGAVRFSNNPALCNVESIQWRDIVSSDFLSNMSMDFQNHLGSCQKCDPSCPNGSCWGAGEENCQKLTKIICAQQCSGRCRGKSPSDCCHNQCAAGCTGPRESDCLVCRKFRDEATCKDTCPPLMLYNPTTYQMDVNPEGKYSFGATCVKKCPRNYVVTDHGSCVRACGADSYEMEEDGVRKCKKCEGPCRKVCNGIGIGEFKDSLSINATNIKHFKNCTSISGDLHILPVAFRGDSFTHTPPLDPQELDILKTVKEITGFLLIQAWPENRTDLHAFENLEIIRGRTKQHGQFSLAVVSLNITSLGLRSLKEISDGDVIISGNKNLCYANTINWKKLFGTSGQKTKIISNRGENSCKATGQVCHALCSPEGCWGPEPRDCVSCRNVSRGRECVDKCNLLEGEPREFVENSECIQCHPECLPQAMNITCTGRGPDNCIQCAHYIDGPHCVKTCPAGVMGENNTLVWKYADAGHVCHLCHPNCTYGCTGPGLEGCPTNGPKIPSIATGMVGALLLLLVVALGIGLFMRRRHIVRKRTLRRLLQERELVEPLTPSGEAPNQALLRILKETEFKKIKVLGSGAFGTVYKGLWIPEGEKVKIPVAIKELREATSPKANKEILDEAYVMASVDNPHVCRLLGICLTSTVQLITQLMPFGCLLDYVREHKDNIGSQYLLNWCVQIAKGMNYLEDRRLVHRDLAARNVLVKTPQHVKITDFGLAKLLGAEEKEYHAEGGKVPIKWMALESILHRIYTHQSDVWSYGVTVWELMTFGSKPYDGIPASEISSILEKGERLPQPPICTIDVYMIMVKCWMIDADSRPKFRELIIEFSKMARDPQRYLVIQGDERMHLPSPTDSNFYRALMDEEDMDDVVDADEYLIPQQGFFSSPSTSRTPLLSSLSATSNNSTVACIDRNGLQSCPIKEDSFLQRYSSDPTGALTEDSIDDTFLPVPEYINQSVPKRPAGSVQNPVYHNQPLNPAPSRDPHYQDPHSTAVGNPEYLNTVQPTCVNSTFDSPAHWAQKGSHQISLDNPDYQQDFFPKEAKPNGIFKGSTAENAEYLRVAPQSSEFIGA

IC50 (EGFR) | IC50 (VEGFR-2) | IC50 (CDK-2/cyclin A2) | melting point | Inhibitory activity against EGFR (in words) (EGFR) | Inhibitory activity against VEGFR-2 (in words) (VEGFR-2) | Inhibitory activity against CDK-2/cyclin A2 (in words) (CDK-2/cyclin A2) | SMILES | cytotoxicity at 100 µM [1] | cytotoxicity at 100 µM [2] | cytotoxicity at 100 µM [3] | IC50 [3] | cytotoxicity at 100 µM [4] | cytotoxicity at 100 µM [5] | IC50 ([5]; HCT-116, MTT, 0.78–100 µM, ± SD) | Toxicity on normal skin cells BJ-1 (in words) [6]
0.22 ± 0.01 µM | 0.93 ± 0.42 µM | 0.24 ± 0.2 µM | 231 to 232 °C |  |  |  | Cn1c(COc2ccc3c(-c4ccccc4)cc(=O)oc3c2)nnc1SC1OCC(O)C(O)C1O [Compound 8, 4-Phenyl-7-((4-methyl-5-(1-(β-D-xylopyranosyl)thio)-4H-1,2,4-triazol-3-yl)meth-oxy)-2H-chromen-2-one] | 41.9 ± 0.7% | 37.1 ± 2.3% | 60.1 ± 0.7% | 52.2 ± 1.3 µM | 28.4 ± 0.6% | 23 ± 0.6% |  | 
123 ± 0.1 µM | 172 ± 0.02 µM | 211 ± 0.05 µM | 114 to 115 °C | no inhibitory activities | no inhibitory activities | no inhibitory activities | CC(=O)OC[C@H]1O[C@@H](OCc2cn(CCCOc3ccc4c(-c5ccccc5)cc(=O)oc4c3)nn2)[C@H](OC(C)=O)[C@@H](OC(C)=O)[C@H]1OC(C)=O [Compound 21] | 58.3 ± 1.7% | 26.4 ± 0.3% | 85.4 ± 1.8% | 38.9 ± 0.8 µM | 59.2 ± 1.1% | 64.9 ± 0.5% | 82.8 ± 2.3 µM | 
 |  |  | 188 to 189 °C |  |  |  | O=c1cc(-c2ccccc2)c2ccc(OCCCn3cc(CO[C@@H]4OC[C@@H](O)[C@H](O)[C@H]4O)nn3)cc2o1 [Compound 25] | 90.4 ± 0.8% | 94.2 ± 2.2% | 81.9 ± 0.9% |  | 82.7 ± 1.1% | 97.1 ± 1.1% |  | high toxicity

SMILES | IC50 (EGFR) | IC50 (VEGFR-2) | IC50 (CDK-2/cyclin A2) | melting point | Inhibitory activity against EGFR (in words) (EGFR) | Inhibitory activity against VEGFR-2 (in words) (VEGFR-2) | Inhibitory activity against CDK-2/cyclin A2 (in words) (CDK-2/cyclin A2) | cytotoxicity at 100 µM [1] | cytotoxicity at 100 µM [2] | cytotoxicity at 100 µM [3] | IC50 [3] | cytotoxicity at 100 µM [4] | cytotoxicity at 100 µM [5] | IC50 ([5]; HCT-116, MTT, 0.78–100 µM, ± SD) | Toxicity on normal skin cells BJ-1 (in words) [6]
O=c1cc(-c2ccccc2)c2ccc(OCCCCn3cc(CO[C@@H]4O[C@H](CO)[C@H](O)[C@H](O)[C@H]4O)nn3)cc2o1 [Compound 26] |  |  |  | 195 to 196 °C |  |  |  | 66.9 ± 2.2% | 31.4 ± 0.5% | 91.8 ± 1.2% |  | 2.6 ± 0.2% | 83.9 ± 0.9% |  | high toxicity
